What was measured:
Assay type in all cases: physicochemical
[1] = Visual assessment of thioglycolipid aggregation and hydrogel formation; parameters: key to Visual assessment of aggregation and gelation: G = gel; F = fibrous aggregation; C = clear solution; O = cloudy solution; conditions: for Hydrogelation on quenching: quenched at temperatures <20° C.
Procedure: Preparation of Thioglycolipid Solutions and Hydrogel Fabrication. Aqueous solutions of thioglycolipids were prepared by weighing 2-3 mg of thioglycolipids and adding an appropriate volume of water to make solution samples at desired concentrations in vials. The vials were capped, sealed with Parafilm, and heated to 75° C. (or 85° C. for LacSC12) until the thioglycolipids were completely dissolved, which typically required about 1 min. The samples were then allowed to cool to ambient temperature. Above some minimal concentration, the solution forms hydrogels upon cooling (FIG. 1). While hydrogelation happens in under 1 min, the gels were allowed to equilibrate at room temperature for 15 min before any analysis. To make metastable thiocellobiosides gels, the samples were quenched at −4° C. after dissolution at 75° C. Although the metastable hydrogels also formed in under 1 min, the gels were allowed to equilibrate at −4° C. for 15 min before analysis.
Visual Assessment of Thioglycolipid Hydrogel Formation. A wide range of thioglycolipid solutions were evaluated to establish concentration conditions (wt %) under which hydrogelation occurs and to assess the formation of other phases. For LacSC8 and LacSC12 solutions at concentrations <0.5 wt %, the solutions were either clear (C) or contain large aggregates (O) (i.e., cloudy). These solutions formed partial hydrogels surrounded by clear solution between 0.5 but <1 wt %, and were completely gelled at concentrations of 1 wt % and greater. Solutions of LacSC10 at <2 wt % formed partial hydrogels surrounded by clear liquid but were completely gelled at or above 2 wt %. […] CelSC10 and CelSC12 solutions formed settled fibrous aggregates in clear solution after equilibrating at ambient temperature overnight. […] If retained at 5° C. , the CelSC10 and CelSC12 gels were stable for at least 6 months. […] Powder x-ray diffraction confirmed that these fibrous aggregates were crystalline. Overall, the thioglycolipid concentration at which hydrogelation can be observed can be as low as 0.05 wt %, depending on thioglycolipid system, compared to the typical concentration for hydrogelation of at least 1 wt % commonly reported in the literature, although 0.25-2 wt % is the concentration range wherein these thioglycolipid solutions became fully hydrogelled. The existence of metastable hydrogels and the ability to tune the transformation of hydrogels into crystals may allow their potential use as smart materials for different applications.

[2] = Differential scanning calorimetry of hydrogels (gel-sol phase transition); conditions: for Phase transition temperature: DSC heating 5° C. per min; for Enthalpy (J/g hydrogel) / Enthalpy (kJ/mol thioglycolipids): gel-sol transition
Procedure: Differential Scanning calorimetry. A Mettler Toledo DSC 823e differential scanning calorimeter, equipped with cooling apparatus, was used for measurement of the phase transition temperature and enthalpy of the gels. Hydrogel samples were first prepared using the fabrication method described above. Then, they were heated to 75° C. (or 85° C. for LacSC12) until they were in the solution state and then pipetted into aluminum, 40 μL DSC pans and capped with lids. The amount of hydrogel in each aluminum pan was controlled to about 6-8 mg. The pans were maintained at 85° C. for 1 min to ensure the samples were in the solution state. Then, they were cooled to 5° C. and maintained at this temperature for 20 min to ensure the formation of hydrogels. […], the samples were heated from 5° C. to 85° C. at a heating rate at 5° C. per min.
Thermal Properties by DSC. Differential scanning calorimetry (DSC) was used to determine the phase transition temperature as well as to explore the possible existence of other lyotropic phases. DSC involves monitoring the enthalpy change during a phase transition, which can be used as a measure of hydrogel stability. The results (Table 2) indicated an endothermic transition between 30° C. and 80° C. for all thioglycolipid hydrogels studied, and these transitions matched those observed visually in bulk solutions. Overall, hydrogels with longer carbon chains had higher thermostability (i.e., higher phase transition temperature). In addition, the LacSCx (x=10,12) hydrogels had higher thermostability than the CelSCx (x=10,12) hydrogels, despite similar phase transition enthalpies. […] However, the LacSC12 and CelSC12 hydrogels required twice the enthalpy compared to the other three.

[3] = Small amplitude oscillatory shear rheology of hydrogels (strain sweep, frequency sweep, thixotropy); conditions: LacSC10 2 wt %, LacSC12 1 wt %
Procedure: Rheometry. The viscoelastic mechanical properties of the hydrogels were characterized using small amplitude oscillatory shear rheology on a Discovery Hybrid Rheometer 2 (TA Instruments, USA) with a sandblasted 20 mm cone-and-plate geometry at a 1° angle and a sandblasted stage. Inertia, friction, and rotational mapping calibrations were performed prior to each experiment. A Peltier temperature-controlled stage was maintained at 4° C., 10° C., 25° C., or 37° C. for rheology testing. Hydrogels were heated in a water bath above their transition temperature for 5 min, then transferred to the stage before the geometry was lowered quickly (1-3 sec) to the testing gap height of 50 μm. Excess gel was trimmed from the edges of the assembly. To control evaporation, the assembly was encased in a solvent trap with a water seal, and a mineral oil barrier was placed around the edges of the trap. Hydrogels were allowed to form and relax for 1 hour prior to experimentation. Strain sweeps were performed from 0.01% to 1000% shear strain at a constant 10 rad/s angular frequency. G′ (storage modulus) and G″ (loss modulus) were determined by averaging data within the linear viscoelastic region of the strain sweep. Frequency sweeps were performed from 0.01 rad/s to 100 rad/s at a constant 0.01% shear strain. Thixotropy experiments were conducted by cycling the shear strain between 0.01% and 100%. […]

[4] = Stability of hydrogel disks in aqueous media of various pH
Description: Stability of some of the representative hydrogels of the invention in various pH aqueous media was investigated.

[5] = thioglycolipid concentration 0.05 wt %, room temperature
[6] = thioglycolipid concentration 0.1 wt %, room temperature
[7] = thioglycolipid concentration 0.25 wt %, room temperature
[8] = thioglycolipid concentration 0.5 wt %, room temperature
[9] = thioglycolipid concentration 0.75 wt %, room temperature
[10] = thioglycolipid concentration 1 wt %, room temperature
[11] = thioglycolipid concentration 2 wt %, room temperature
[12] = thioglycolipid concentration 5 wt %, room temperature
[13] = thioglycolipid concentration 10 wt %, room temperature

Compound | Visual assessment of aggregation and gelation [1, 5] | Visual assessment of aggregation and gelation [1, 6] | Visual assessment of aggregation and gelation [1, 7] | Visual assessment of aggregation and gelation [1, 8] | Visual assessment of aggregation and gelation [1, 9] | Visual assessment of aggregation and gelation [1, 10] | Visual assessment of aggregation and gelation [1, 11] | Visual assessment of aggregation and gelation [1, 12] | Visual assessment of aggregation and gelation [1, 13] | Phase transition temperature ([2]; 1 wt % hydrogel) | Enthalpy (J/g hydrogel) ([2]; 1 wt % hydrogel) | Enthalpy (kJ/mol thioglycolipids) ([2]; 1 wt % hydrogel) | Hydrogelation on quenching [1] | Gel properties at 37° C. [3] | other results
CCCCCCCCS[C@@H]1O[C@H](CO)[C@@H](O[C@@H]2O[C@H](CO)[C@@H](O)[C@H](O)[C@H]2O)[C@H](O)[C@H]1O [CelSC8] | C | C | C | C | C | C | C | C | C |  |  |  |  |  | Visual state of solutions over all concentrations studied ([1]; room temperature, 0.05-10 wt %): remained as clear solutions at all concentrations studied
CCCCCCCCCCS[C@@H]1O[C@H](CO)[C@@H](O[C@@H]2O[C@H](CO)[C@@H](O)[C@H](O)[C@H]2O)[C@H](O)[C@H]1O [CelSC10] | F | F | G or F | G or F | G or F | G or F | G or F | G or F | G or F | 31-37 °C | 0.18 ± 0.01 J/g hydrogel | 9.0 ± 0.6 kJ/mol thioglycolipids | completely hydrogelled |  | 
CCCCCCCCCCCCS[C@@H]1O[C@H](CO)[C@@H](O[C@@H]2O[C@H](CO)[C@@H](O)[C@H](O)[C@H]2O)[C@H](O)[C@H]1O [CelSC12] | F | F | G or F | G or F | G or F | G or F | G or F | G or F | G or F | 42-54 °C | 0.42 ± 0.06 J/g hydrogel | 22.3 ± 3.3 kJ/mol thioglycolipids | completely hydrogelled |  | 
CCCCCCCCS[C@@H]1O[C@H](CO)[C@@H](O[C@@H]2O[C@H](CO)[C@H](O)[C@H](O)[C@H]2O)[C@H](O)[C@H]1O [LacSC8] | C | C | C | G + C | G + C | G | G | G | G | 38-46 °C | 0.20 ± 0.03 J/g hydrogel | 9.2 ± 1.4 kJ/mol thioglycolipids |  |  | 
CCCCCCCCCCS[C@@H]1O[C@H](CO)[C@@H](O[C@@H]2O[C@H](CO)[C@H](O)[C@H](O)[C@H]2O)[C@H](O)[C@H]1O [LacSC10] | G + C | G + C | G + C | G + C | G + C | G + C | G | G | G |  |  |  |  | retained their gel properties | Phase transition temperature ([2]; 2 wt % hydrogel): 57-64 °C; Enthalpy (J/g hydrogel) ([2]; 2 wt % hydrogel): 0.35 ± 0.02 J/g hydrogel; Enthalpy (kJ/mol thioglycolipids) ([2]; 2 wt % hydrogel): 8.8 ± 0.5 kJ/mol thioglycolipids; Concentration at which solutions were completely gelled ([1]; room temperature): ≥ 2 wt %; Hydrogel disk size or volume in aqueous media ([4]; pH 2, 7.4 and 10, days 1-21): No observable decrease in disk size or volume; Time hydrogel disks are stable in aqueous media ([4]; pH 2, 7.4 and 10, maximum time investigated): stable in these aqueous media for over two months
CCCCCCCCCCCCS[C@@H]1O[C@H](CO)[C@@H](O[C@@H]2O[C@H](CO)[C@H](O)[C@H](O)[C@H]2O)[C@H](O)[C@H]1O [LacSC12] | O | O | O | G + C | G + C | G | G | G | G | 63-79 °C | 0.39 ± 0.10 J/g hydrogel | 20.7 ± 5.3 kJ/mol thioglycolipids |  | retained their gel properties | 
